The values below are quoted from earlier work in patent US20040109886A1 (priority 2002, published 2004).

One may read the pKa as the negative logarithm of the acid dissociation constant.

The conditions of data set [1]: base.

Molecules are shown by their SMILES.

For the compound `O=C(CCCN1CC=C(n2c(=O)[nH]c3ccccc32)CC1)c1ccc(F)cc1` [droperidol], the pKa in data set [1] was 7.64. In addition, for the setting “acidic water”, the “solubility in acidic water” value was “soluble”. For the same compound, the solubility in alcohol result (alcohol) was “high solubility”.
